Measurements: patent publication US9428519B2, “Acylated derivative of homoharringtonine, preparation method therefor, and application thereof” (HANGZHOU BENSHENG PHARMACEUTICAL CO., LTD., priority 2011, dated 2016)
Values after ≈ are worked out from the molar mass of the structure shown.

Experiments:
[1] = tested on: RPMI8226 (multiple myeloma); assay: MTT growth inhibition of multiple myeloma cells, 72 h; format: cell-based, human
Experimental: Multiple myeloma and lymphoma cell lines: RPMI8226 (multiple myeloma), purchased from Fuxiang Bio-tech Co. Ltd., Shanghai, China.
(§1) Obtaining 6000 well-growing leukemia cells and inoculating them into wells of a 96-well cell culture plate. The culture medium is the 1640 cell culture medium containing 10% fetal bovine serum. After adding the homoharringtonine derivatives of different concentrations and mixing uniformly, placing the plate in a carbon dioxide cell incubator (5% CO2) at 37° C. and incubated for 72 hours. Then the viable cell concentration is determined by the MTT method. In this experiment, the cell viability in control group (not treated with any compound) is set as 100%. On such basis, the cell viability (%) after treatment and the 50% inhibiting concentration of the compound for the leukemia cell growth at 72 hours (IC50 value of 72 hours) are calculated.

[2] = tested on: Kasumi-1 (acute myeloid leukemia M2 type, AML-M2); assay: MTT growth inhibition of leukemia cells, 72 h; format: cell-based, human
Source text: (§2) Leukemia cell lines: leukemia cell lines: K562/adr (drug-resistant, chronic myeloid leukemia, CML), NB4 (acute promyelocytic leukemia, AML), Kasumi-1 (acute myeloid leukemia M2 type, AML-M2), Jurkat (acute lymphoblastic leukemia, ALL), all of which are donated by Cancer Research Institute of Zhejiang University, China; and H9 (acute lymphoblastic leukemia, ALL), which is purchased from China Center for Type Culture Collection (CCTCC).
(§3) Reagents: The standard sample of homoharringtonine (HHT) is purchased from Taihua Natural Plant Pharmaceutical Co., Ltd., Shaanxi, China, the homoharringtonine derivatives of the present invention.
as §1

[3] = tested on: K562/adr (drug-resistant, chronic myeloid leukemia, CML); assay: MTT growth inhibition of leukemia cells, 72 h; format: cell-based, human; settings: MTT
Source text: as §2, §3, §1

[4] = tested on: NB4 (acute promyelocytic leukemia, AML); assay: MTT growth inhibition of leukemia cells, 72 h; format: cell-based, human; settings: MTT
Source text: as §2, §3, §1

[5] = tested on: Jurkat (acute lymphoblastic leukemia, ALL); assay: MTT growth inhibition of leukemia cells, 72 h; format: cell-based, human
Source text: as §2, §3, §1

[6] = tested on: H9 (acute lymphoblastic leukemia, ALL); assay: MTT growth inhibition of leukemia cells, 72 h; format: cell-based, human; settings: MTT
Source text: as §2, §3, §1

[7] = tested on: Hep-2 (laryngeal carcinoma); assay: MTT growth inhibition of human solid tumor cells, 72 h; format: cell-based
Experimental: (§4) Human solid tumor cell lines: Hep-2 (laryngeal carcinoma), A549 (human lung cancer), CaES-17 (esophageal cancer cell), PC-3 (prostate cancer), CNE (nasopharyngeal carcinoma cell), and SK-OV-3 (ovarian cancer cell), all of which are purchased from China Center For Type Culture Collection; RKO (human colon adenocarcinoma cell), MGC 803 (human gastric cancer cell), MG63 (osteosarcoma) and U87 MG (malignant glioma cell), all of which are purchased from Fuxiang Bio-tech Co. Ltd., Shanghai, China; PANC-1 (pancreatic cancer), Huh7 (human liver cancer cell), Becap37 (human breast cancer cell), and Hela (human cervical cancer cell), all of which are donated by Cancer Research Institute of Zhejiang University, China.
(§5) Obtaining 4000 well-growing human solid tumor cells and inoculating them into wells of a 96-well cell culture plate. The culture medium is DMEM High Glucose cell culture medium containing 10% fetal bovine serum. The plate is placed in a carbon dioxide cell incubator (5% CO2) at 37° C. and incubated for 24 hours. After adding the homoharringtonine derivatives of different concentration and mixing uniformly, the plate is placed in a carbon dioxide cell incubator (5% CO2) at 37° C. and incubated for 72 hours. Then the viable cell concentration is determined by the MTT method and the cell viability (%) after drug treatment is calculated. In this experiment, the cell viability of control group (not treated with any compound) is set as 100%.

[8] = tested on: SK-OV-3 (ovarian cancer cell); assay: as above; format: cell-based
Experimental: as §4, §5

[9] = tested on: U87 MG (malignant glioma cell); assay: as above; format: cell-based
Experimental: as §4, §5

[10] = tested on: RKO (human colon adenocarcinoma cell); assay: as above; format: cell-based
Experimental: as §4, §5

A549 (human lung cancer) = assay: as above; format: cell-based
Experimental: as §4, §5

[11] = tested on: Huh7 (human liver cancer cell); assay: as above; format: cell-based
Experimental: as §4, §5

[12] = tested on: MGC 803 (human gastric cancer cell); assay: as above; format: cell-based
Experimental: as §4, §5

[13] = tested on: Hela (human cervical cancer cell); assay: as above; format: cell-based
Experimental: as §4, §5

[14] = tested on: Becap37 (human breast cancer cell); assay: as above; format: cell-based
Experimental: as §4, §5

MG63 (osteosarcoma) = assay: as above; format: cell-based
Experimental: as §4, §5

[15] = tested on: CNE (nasopharyngeal carcinoma cell); assay: as above; format: cell-based
Experimental: as §4, §5

[16] = tested on: PANC-1 (pancreatic cancer); assay: as above; format: cell-based
Experimental: as §4, §5

PC-3 (prostate cancer) = assay: as above; format: cell-based; settings: MTT
Experimental: as §4, §5

[17] = tested on: CaES-17 (esophageal cancer cell); assay: as above; format: cell-based
Experimental: as §4, §5

Structure (SMILES): COC(=O)C[C@](O)(CCCC(C)(C)OC(=O)c1scnc1C)C(=O)O[C@@H]1C(OC)=C[C@]23CCCN2CCc2cc4c(cc2[C@H]13)OCO4 [BS-HH-0721]
- IC50 ([1]; Homo sapiens, RPMI-8226, MTT): 0.002 µg/mL (≈ 0.00298 µM)
- IC90 ([1]; Homo sapiens, RPMI-8226, MTT): 0.014 µg/mL (≈ 0.0209 µM)
- IC50 ([2]; Homo sapiens, Kasumi 1, MTT): 0.002 µg/mL (≈ 0.00298 µM)
- IC90 ([2]; Homo sapiens, Kasumi 1, MTT): 0.004 µg/mL (≈ 0.00596 µM)
- IC50 ([3]; Homo sapiens, K562/Adr): 0.01 µg/mL (≈ 0.0149 µM)
- IC90 ([3]; Homo sapiens, K562/Adr): 0.05 µg/mL (≈ 0.0745 µM)
- IC50 ([4]; Homo sapiens): 0.003 µg/mL (≈ 0.00447 µM)
- IC90 ([4]; Homo sapiens): 0.005 µg/mL (≈ 0.00745 µM)
- IC50 ([5]; Homo sapiens, Jurkat): 0.002 µg/mL (≈ 0.00298 µM)
- IC90 ([5]; Homo sapiens, Jurkat): ≥ 16 µg/mL
- IC50 ([6]; Homo sapiens): 0.003 µg/mL (≈ 0.00447 µM)
- IC90 ([6]; Homo sapiens): 0.009 µg/mL (≈ 0.0134 µM)
- IC50 ([7]; Homo sapiens, HEp-2): 0.004 µg/mL (≈ 0.00596 µM)
- IC90 ([7]; Homo sapiens, HEp-2): > 16 µg/mL
- IC50 ([8]; Homo sapiens, SK-OV-3, MTT): 0.022 µg/mL (≈ 0.0328 µM)
- IC90 ([8]; Homo sapiens, SK-OV-3, MTT): > 16 µg/mL
- IC50 ([9]; Homo sapiens, U-87 MG): 0.008 µg/mL (≈ 0.0119 µM)
- IC90 ([9]; Homo sapiens, U-87 MG): 0.07 µg/mL (≈ 0.104 µM)
- IC50 ([10]; Homo sapiens, MTT): 0.0009 µg/mL (≈ 0.00134 µM)
- IC90 ([10]; Homo sapiens, MTT): 0.005 µg/mL (≈ 0.00745 µM)
- anti-RKO effect relative to homoharringtonine ([10]; vs HHT): substantially superior
- IC50 (A549 (human lung cancer); Homo sapiens, A549): 0.01 µg/mL (≈ 0.0149 µM)
- IC90 (A549 (human lung cancer); Homo sapiens, A549): > 16 µg/mL
- IC50 ([11]; Homo sapiens, Huh-7): 0.0022 µg/mL (≈ 0.00328 µM)
- IC90 ([11]; Homo sapiens, Huh-7): 0.038 µg/mL (≈ 0.0567 µM)
- IC50 ([12]; Homo sapiens, MGC-803): 0.006 µg/mL (≈ 0.00894 µM)
- IC90 ([12]; Homo sapiens, MGC-803): 0.019 µg/mL (≈ 0.0283 µM)
- IC50 ([13]; Homo sapiens, HeLa, MTT): 0.005 µg/mL (≈ 0.00745 µM)
- IC90 ([13]; Homo sapiens, HeLa, MTT): 16 µg/mL (≈ 23.9 µM)
- anti-Hela effect relative to homoharringtonine ([13]; vs HHT): > 4.0 fold
- IC50 ([14]; Homo sapiens): 0.003 µg/mL (≈ 0.00447 µM)
- IC90 ([14]; Homo sapiens): 8.17 µg/mL (≈ 12.2 µM)
- IC50 (MG63 (osteosarcoma); Homo sapiens, MG-63, MTT): 0.006 µg/mL (≈ 0.00894 µM)
- IC90 (MG63 (osteosarcoma); Homo sapiens, MG-63, MTT): 0.44 µg/mL (≈ 0.656 µM)
- anti-MG63 effect relative to homoharringtonine (MG63 (osteosarcoma); vs HHT): substantially superior
- IC50 ([15]; Homo sapiens, MTT): 0.0037 µg/mL (≈ 0.00552 µM)
- IC90 ([15]; Homo sapiens, MTT): > 16 µg/mL
- anti-CNE effect relative to homoharringtonine ([15]; vs HHT): more than 10 fold
- IC50 ([16]; Homo sapiens, PANC-1, MTT): 0.009 µg/mL (≈ 0.0134 µM)
- IC90 ([16]; Homo sapiens, PANC-1, MTT): > 16 µg/mL
- anti-PANC-1 effect relative to homoharringtonine ([16]; vs HHT): > 4 fold
- IC50 (PC-3 (prostate cancer); Homo sapiens): 0.04 µg/mL (≈ 0.0596 µM)
- IC90 (PC-3 (prostate cancer); Homo sapiens): > 16 µg/mL
- IC50 ([17]; Homo sapiens, CaEs17): 0.014 µg/mL (≈ 0.0209 µM)
- IC90 ([17]; Homo sapiens, CaEs17): 16 µg/mL (≈ 23.9 µM)

Structure (SMILES): COC(=O)C[C@@](CCCC(C)(C)OC(=O)c1scnc1C)(OC(=O)c1scnc1C)C(=O)O[C@@H]1C(OC)=C[C@]23CCCN2CCc2cc4c(cc2[C@H]13)OCO4 [BS-HH-0722]
- IC50 RPMI8226 ([1]; MTT): 0.29 µg/mL (≈ 0.364 µM)
- IC90 RPMI8226 ([1]; MTT): 1.82 µg/mL (≈ 2.29 µM)
- IC50 Kasumi-1 ([2]; MTT): 0.14 µg/mL (≈ 0.176 µM)
- IC90 Kasumi-1 ([2]; MTT): 0.47 µg/mL (≈ 0.591 µM)
- IC50 K562/adr [3]: 0.9 µg/mL (≈ 1.13 µM)
- IC90 K562/adr [3]: 3.72 µg/mL (≈ 4.67 µM)
- IC50 NB4 [4]: 0.2 µg/mL (≈ 0.251 µM)
- IC90 NB4 [4]: 0.49 µg/mL (≈ 0.616 µM)
- IC50 Jurkat [5]: 0.3 µg/mL (≈ 0.377 µM)
- IC90 Jurkat [5]: ≥ 16 µg/mL
- IC50 H9 [6]: 0.47 µg/mL (≈ 0.591 µM)
- IC90 H9 [6]: 1.24 µg/mL (≈ 1.56 µM)
- IC50 Hep-2 [7]: 0.48 µg/mL (≈ 0.603 µM)
- IC90 Hep-2 [7]: >16 µg/mL
- IC50 SK-OV-3 ([8]; MTT): 1.94 µg/mL (≈ 2.44 µM)
- IC90 SK-OV-3 ([8]; MTT): >16 µg/mL
- IC50 U87 MG [9]: 0.67 µg/mL (≈ 0.842 µM)
- IC90 U87 MG [9]: 3.42 µg/mL (≈ 4.3 µM)
- IC50 RKO ([10]; MTT): 0.22 µg/mL (≈ 0.276 µM)
- IC90 RKO ([10]; MTT): 0.87 µg/mL (≈ 1.09 µM)
- IC50 A549 (A549 (human lung cancer)): 0.89 µg/mL (≈ 1.12 µM)
- IC90 A549 (A549 (human lung cancer)): >16 µg/mL
- IC50 Huh7 [11]: 0.66 µg/mL (≈ 0.829 µM)
- IC90 Huh7 [11]: 7.6 µg/mL (≈ 9.55 µM)
- IC50 MGC 803 [12]: 0.5 µg/mL (≈ 0.628 µM)
- IC90 MGC 803 [12]: 12 µg/mL (≈ 15.1 µM)
- IC50 Hela ([13]; MTT): 0.87 µg/mL (≈ 1.09 µM)
- IC90 Hela ([13]; MTT): >16 µg/mL
- IC50 Becap37 [14]: 0.47 µg/mL (≈ 0.591 µM)
- IC90 Becap37 [14]: 16 µg/mL (≈ 20.1 µM)
- IC50 MG 63 (MG63 (osteosarcoma); MTT): 0.21 µg/mL (≈ 0.264 µM)
- IC90 MG 63 (MG63 (osteosarcoma); MTT): 9.43 µg/mL (≈ 11.8 µM)
- IC50 CNE ([15]; MTT): 0.77 µg/mL (≈ 0.967 µM)
- IC90 CNE ([15]; MTT): >16 µg/mL
- IC50 PANC-1 ([16]; MTT): 0.83 µg/mL (≈ 1.04 µM)
- IC90 PANC-1 ([16]; MTT): >16 µg/mL
- IC50 PC-3 (PC-3 (prostate cancer)): 0.82 µg/mL (≈ 1.03 µM)
- IC90 PC-3 (PC-3 (prostate cancer)): >16 µg/mL
- IC50 CaES-17 [17]: 1.24 µg/mL (≈ 1.56 µM)
- IC90 CaES-17 [17]: 16 µg/mL (≈ 20.1 µM)
